Assay results published in ChEMBL document CHEMBL1159299, “Multidrug-resistance modulators from Stephania japonica” (1997).
Values after ≈ are worked out from the molar mass of the structure shown.

Tests used:
[1] = Cytotoxicity against human MCF7/ADR cells; type: functional; details: NCI/ADR-RES, read-out: ED50 (the source's name)
[2] = Cytotoxicity against human MCF7/ADR cells assessed as ratio of drug concentration to drug ED100 at 1.0 ug/ml after 6 days by BCA assay; type: functional, NCI/ADR-RES
[3] = Cytotoxicity against human MCF7/ADR cells assessed as ratio of drug concentration to drug ED100 at 0.8 ug/ml after 6 days by BCA assay; type: functional, NCI/ADR-RES
[4] = Cytotoxicity against human MCF7/ADR cells assessed as ratio of drug concentration to drug ED100 at 0.6 ug/ml after 6 days by BCA assay; type: functional, NCI/ADR-RES
[5] = Cytotoxicity against human MCF7/ADR cells assessed as ratio of drug concentration to drug ED100 at 0.3 ug/ml after 6 days by BCA assay; type: functional, NCI/ADR-RES
[6] = Cytotoxicity against human MCF7/ADR cells assessed as ratio of drug concentration to drug ED100 at 0.15 ug/ml after 6 days by BCA assay; type: functional, NCI/ADR-RES
MCF/ADR [7] = test: Reversal of P-gp-mediated multidrug resistance in human MCF/ADR cells assessed as ratio of doxorubicin ED50 without drug to doxorubicin ED50 with drug at 1.0 ug/ml after 6 days by BCA assay; type: cell-based
MCF/ADR [8] = test: Reversal of P-gp-mediated multidrug resistance in human MCF/ADR cells assessed as ratio of doxorubicin ED50 without drug to doxorubicin ED50 with drug at 0.8 ug/ml after 6 days by BCA assay; type: cell-based
MCF/ADR [9] = test: Reversal of P-gp-mediated multidrug resistance in human MCF/ADR cells assessed as ratio of doxorubicin ED50 without drug to doxorubicin ED50 with drug at 0.6 ug/ml after 6 days by BCA assay; type: cell-based
MCF/ADR [10] = test: Reversal of P-gp-mediated multidrug resistance in human MCF/ADR cells assessed as ratio of doxorubicin ED50 without drug to doxorubicin ED50 with drug at 0.3 ug/ml after 6 days by BCA assay; type: cell-based
MCF/ADR [11] = test: Reversal of P-gp-mediated multidrug resistance in human MCF/ADR cells assessed as ratio of doxorubicin ED50 without drug to doxorubicin ED50 with drug at 1.15 ug/ml after 6 days by BCA assay; type: cell-based
[12] = Cytotoxicity against human MCF7/ADR cells assessed as ratio of drug concentration to drug ED100 at 10 ug/ml after 6 days by BCA assay; type: functional, NCI/ADR-RES
[13] = Cytotoxicity against human MCF7/ADR cells assessed as ratio of drug concentration to drug ED100 at 8 ug/ml after 6 days by BCA assay; type: functional, NCI/ADR-RES
[14] = Cytotoxicity against human MCF7/ADR cells assessed as ratio of drug concentration to drug ED100 at 6 ug/ml after 6 days by BCA assay; type: functional, NCI/ADR-RES
[15] = Cytotoxicity against human MCF7/ADR cells assessed as ratio of drug concentration to drug ED100 at 3 ug/ml after 6 days by BCA assay; type: functional, NCI/ADR-RES
[16] = Cytotoxicity against human MCF7/ADR cells assessed as ratio of drug concentration to drug ED100 at 1.5 ug/ml after 6 days by BCA assay; type: functional, NCI/ADR-RES

SMILES | EC50 [1] [µg/mL] | Activity [2] | Activity [3] | Activity [4] | Activity [5] | Activity [6] | Ratio ED50 (MCF/ADR [7]) | Ratio ED50 (MCF/ADR [8]) | Ratio ED50 (MCF/ADR [9]) | Ratio ED50 (MCF/ADR [10]) | Ratio ED50 (MCF/ADR [11]) | Activity (MCF/ADR [7]) | Activity (MCF/ADR [8]) | Activity (MCF/ADR [9]) | Activity (MCF/ADR [10]) | Activity [12] | Activity [13] | Activity [14] | Activity [15] | Activity [16]
COc1ccc2cc1Oc1ccc(cc1)C[C@H]1c3c(cc(OC)c4c3Oc3cc5c(cc3O4)CCN(C)[C@H]5C2)CCN1C [ISOTRILOBINE] | 2 (≈ 3.47 µM) | 0.2 | 0.16 | 0.12 | 0.06 | 0.03 | 70 | 57 | 32 | 10 | 5 | – | – | – | – | – | – | – | – | –
COc1ccc2cc1Oc1ccc(cc1)C[C@@H]1NCCc3cc(OC)c4c(c31)Oc1cc3c(cc1O4)CCN(C)[C@H]3C2 [TRILOBINE] | 1 (≈ 1.78 µM) | 0.17 | 0.13 | 0.1 | 0.05 | – | – | – | – | – | – | 2 | 2 | 1.5 | 1 | – | – | – | – | –
COc1ccc(CCN(C)CCCC(C#N)(c2ccc(OC)c(OC)c2)C(C)C)cc1OC (stereo not given) [VERAPAMIL] | – | – | – | – | – | – | – | – | – | – | – | – | – | – | – | 0.19 | 0.15 | 0.12 | 0.06 | 0.03
